This assay is described as follows: Inhibitory activity towards acetylcholine esterase (AChE). Also noted: species or system Tetronarce californica.
In the case of `CNC(=O)Oc1ccc2c(c1)[C@]1(C)CCN(C)[C@@H]1N2C` [PHYSOSTIGMINE], the IC50 (in general, the concentration needed to halve the response being measured) came to 0.36 µM.
With `CN(C)c1ccc(-c2c3cc(O)c(=O)cc-3oc3cc(O)c(O)cc23)cc1`, half-maximal inhibition (IC50) was put at 22 µM.
With `Cc1nc(N)ncc1-c1nnnn1-c1ccc(-c2ccccc2)cc1` the figure was 27 µM; with `COc1ccc(/N=C/c2cn(-c3ccc(OC)cc3)cc2/C=N/c2ccc(OC)cc2)cc1`, 14 µM.
`Cc1cc(C2(c3cc(C)c(O)c(C)c3)CCCCC2)cc(C)c1O`: the 50% inhibitory concentration (IC50) was determined as 15 µM.
Turning to `CC(Cc1ccc(O)cc1)C1CCC(C)C(c2ccc(O)cc2)C1` (centres undefined), the midpoint of inhibition, the IC50, lay at 0.62 µM.
As to `CCCc1cc(-n2cccn2)ccc1C(=O)ONC(=N)c1ccc(C(F)(F)F)cc1`, it took 13 µM to reach half-maximal inhibition (IC50).
Consider `O=C(CC1S/C(=N/c2ccc(C3CCCCC3)cc2)NC1=O)Nc1ccc(OC(F)(F)F)cc1` (centres undefined), for which inhibition was half-maximal at 2.9 µM (IC50).
`Cc1c(/N=C/c2ccccc2O)cc2c(c1N)C(C)(C)CC2(C)C` yielded an IC50 of 16 µM.
For `Fc1ccc(N(Cc2ccc3c(c2)OCO3)C(=S)Nc2cccc(C(F)(F)F)c2)cc1`, the midpoint of inhibition, the IC50, lay at 8 µM.
The result for `C/C(=N/O)c1ccc(Cl)c(NC(=O)c2c(-c3ccccc3Cl)noc2C)c1` reads 6.7 µM; that for `COc1cc(N)c(Cl)cc1C(=O)NC1CCN(Cc2ccccc2)CC1` [CLEBOPRIDE], 0.89 µM.
The result for `O=C(Nc1cccc(C2=NCCN2)c1)Nc1cccc(C2=NCCN2)c1` [IMIDOCARB] reads 0.59 µM; that for `O=C(O[C@@H]1Cc2c(O)cc(O)cc2O[C@@H]1c1ccc(O)c(O)c1)c1cc(O)c(O)c(O)c1` [EPICATECHIN GALLATE], 28 µM.

The record behind these values is ChEMBL document CHEMBL1138758, “Efficient method for high-throughput virtual screening based on flexible docking: discovery of novel acetylcholinesterase inhibitors” (J Med Chem, 2004).
